Data taken from article PMC5323086, “Ionization Constants of the Six Dichloroanilines and the Six Dichlorophenols in Aqueous Solution at 25 °C” (Journal of Research of the National Bureau of Standards. …, 1964).
Read-outs that look alike come from different tables or passages of the source. Each block holds one compound with its values, some of them ahead of it.

What was measured:
[1] = pK calculated from monosubstituted compounds assuming additivity of substituent effects
[2] = physchem
[3] = aqueous solution at 25°; final value, standard deviation in parentheses; 2,6-compound: limiting value at CHCl=0
[4] = cited from earlier work
[5] = pK calculated by the Hammett relation, eq (5) and eq (6)
[6] = pK values quoted from the literature; assay type: physicochemical; settings: Murray and Gordon value raised by 0.22
[7] = pKA calculated from pKP of the corresponding phenol by linear relation eq (8)
[8] = pK (calc.)−pK (obs.), pK (calc.) from monosubstituted compounds

Compound: Nc1ccc(Cl)cc1Cl [2,4-Dichloroaniline, 2,4-Dichloroaniline]
ΔpK(1) Dichloroaniline [1, 8]: .01

Compound: Nc1c(Cl)cccc1Cl [2,6-Dichloroaniline]
pKa [2]: 0.482 | ΔpK(1) Dichloroaniline [1, 8]: .28 | pK Dichloroaniline [3]: 0.422

Compound: Nc1cccc(Cl)c1Cl [2,3-Dichloroaniline]
ΔpK(1) Dichloroaniline [1, 8]: 0.16

Compound: Oc1cccc(Cl)c1Cl [2,3-Dichlorophenol]
ΔpK(1) Dichlorophenol [1]: −0.05

melting point: 50 to 50.5 °C
Compound: Nc1cc(Cl)ccc1Cl [2,5-Dichloroaniline]
pKA ([4]; Gillois and Rumpf): 1.57

Compound: Nc1cc(Cl)cc(Cl)c1 [3,5-Dichloroaniline]
ΔpK(1) Dichloroaniline [1]: .06 | difference of Hammett-calculated pK from the observed value [5]: 0.02

Compound: O=C(O)c1ccc(Cl)c(Cl)c1 [3,4-dichlorobenzoic acid]
ionization constant (pK) [4]: 3.64

Compound: Cc1ccc(C)c(O)c1 [2,5-xylenol]
pK [4]: 10.40

Compound: Oc1c(Cl)cccc1Cl [2,6-Dichlorophenol]
ΔpK(1) Dichlorophenol [1]: .27 | pKP adjusted value [6]: 7.01

Compound: Nc1ccc(Cl)cc1[N+](=O)[O-] [4-chloro-2-nitroaniline]
discrepancy between observed and predicted pK, eq (8) [7]: 1.03

Compound: O=C(O)c1cc(Cl)cc(Cl)c1 [3,5-dichlorobenzoic acid]
ionization constant (pK) [4]: 3.43

Compound: Oc1ccc(Cl)cc1Cl [2,4-Dichlorophenol]
ΔpK(1) Dichlorophenol [1]: .06

Compound: Nc1ccc(Cl)c(Cl)c1 [3,4-Dichloroaniline]
ΔpK(1) Dichloroaniline [1]: −.07

Compound: Oc1cc(Cl)cc(Cl)c1 [3,5-Dichlorophenol]
ΔpK(1) Dichlorophenol [1]: .07 | difference of Hammett-calculated pK from the observed value [5]: 0.01

discrepancy between observed and predicted pK, eq (8) [7]: 0.17
Compound: Cc1cc(N)ccc1[N+](=O)[O-] [4-nitro-m-toluidine]
pK ([4]; Wepster): 1.50

Compound: Oc1ccc(Cl)c(Cl)c1 [3,4-Dichlorophenol]
ΔpK(1) Dichlorophenol [1]: −.04 | difference of Hammett-calculated pK from the observed value [5]: 0.08

Compound: Oc1cc(Cl)ccc1Cl [2,5-Dichlorophenol]
ΔpK(1) Dichlorophenol [1]: .15
